“And” between values parts separate entries of the source, which are not always exact repeats. Identical values can stand only once.

As usually defined, the IC50 is the concentration that inhibits the measured activity by half. What is called inhibition in vivo is the relative decrease from the control value, in per cent. The term solubility denotes the dissolved amount per volume that the medium holds. One may read the Papp A→B as the apparent permeability from the apical to the basolateral side of a cell layer. In general, half-life refers to the time in which the quantity being followed falls by half. What is called bioavailability is dose-corrected exposure relative to a reference, in per cent.

In series [1] the target is Mitogen-activated protein kinase 14 (Homo sapiens, UniProt Q16539). Briefly: Inhibition of p38alpha assessed as phosphorylation FITC-labeled Hsp27 after 60 mins by fluorescence based cascade assay.
Sequence of Mitogen-activated protein kinase 14 (Q16539 whole entry): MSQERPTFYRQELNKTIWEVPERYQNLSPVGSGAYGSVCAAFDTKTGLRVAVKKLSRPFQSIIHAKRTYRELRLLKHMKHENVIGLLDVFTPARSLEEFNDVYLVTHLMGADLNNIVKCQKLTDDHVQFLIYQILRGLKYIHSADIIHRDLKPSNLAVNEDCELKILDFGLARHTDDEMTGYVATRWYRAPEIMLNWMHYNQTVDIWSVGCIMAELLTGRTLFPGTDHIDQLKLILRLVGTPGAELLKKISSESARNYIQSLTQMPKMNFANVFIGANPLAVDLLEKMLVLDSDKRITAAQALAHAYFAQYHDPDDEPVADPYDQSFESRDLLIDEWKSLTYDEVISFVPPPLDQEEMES
For a further series, the system named is PBMC. Briefly: Antiinflammatory activity in human PBMC assessed as inhibition of LPS-induced TNFalpha release pretreated for 1 hr before LPS treatment measured after 18 hrs. Type of series: functional, cell-based.
For series [2], the system named is Rattus norvegicus. In words: Antiinflammatory activity in fasted Lewis rat assessed as inhibition of LPS-induced TNFalpha production at 5 mg/kg, po administered 4 hrs prior LPS challenge measured after 90 mins by ELISA. Type of series: functional. Particulars: for inhibition in vivo at 5 mg/kg: Rattus norvegicus, Lewis, po. For orientation: In an ELISA, binding on a coated surface is turned into a signal by an enzyme label.

A short description of series [3]: (§1) Metabolic stability in rat liver microsomes assessed as compound remaining at 2 uM after 45 mins by LC/MS analysis in presence of NADPH. Type of series: ADME, Microsome. The conditions noted are these: liver microsomes, read-out: Stability.
Series [4] relates to Rattus norvegicus. Briefly: Antiarthritic activity in Lewis rat assessed as inhibition of streptococcal cell wall-induced paw swelling at 60 mg/kg/day, po administered on day 10 of streptococcal cell wall challenge continued until day 21 by plethysmometer. Type of series: functional.
Series [5] is described as follows: (§2) Metabolic stability in human liver microsomes assessed as compound remaining at 2 uM after 45 mins by LC/MS analysis in presence of NADPH. Type of series: ADME, Microsome. The conditions noted are these: liver microsomes, read-out: Stability. (Liver microsomes are vesicles of endoplasmic reticulum, rich in cytochrome P450 enzymes.)
The nature of series [6]: Solubility of the compound in phosphate buffer at pH 7. The class given is physicochemical.
Series [7] relates to Rattus norvegicus. Briefly: Antiarthritic activity in Lewis rat assessed as inhibition of streptococcal cell wall-induced paw swelling at 2 mg/kg/day, po administered on day 10 of streptococcal cell wall challenge continued until day 21 by plethysmometer. Type of series: functional.
Series [8] relates to Liver microsomes. The description is as §1. Type of series: ADME, Microsome. Particulars: microsomes, 0.75 h, 2 µM.
A short description of series [9]: Apparent permeability across apical to basolateral side in human Caco2 cells at 1 uM. The conditions noted are these: Caco-2. Type of series: ADME, cell-based.
Series [10] is described as follows: Half life in Sprague-Dawley rat administered as crystalline form. Type of series: ADME, organism-based. Particulars: in vivo.
A short description of series [11]: Oral bioavailability in Beagle dog administered as solution. The class given is ADME, organism-based, Canis lupus familiaris. The conditions noted are these: in vivo.
Series [12] relates to Liver microsomes. The description is as §2. Type of series: ADME, Microsome. The conditions noted are these: microsomes, 0.75 h, 2 µM.
A short description of series [13]: Oral bioavailability in Sprague-Dawley rat at 15 mg/kg administered as solution. The class given is ADME, organism-based. The conditions noted are these: in vivo.
A short description of series [14]: Apparent permeability across apical to basolateral side in human Caco2 cells at 100 uM. Type of series: ADME, cell-based. Particulars: Caco-2. On the technique in general: Passage across Caco-2 layers is used to estimate intestinal permeability.
Series [15] in a line: Oral bioavailability in cynomolgus monkey administered as solution. The class given is ADME, organism-based, Macaca fascicularis. Particulars: in vivo.
The nature of series [16]: Half life in cynomolgus monkey administered as crystalline form. The class given is ADME, organism-based, Macaca fascicularis. The conditions noted are these: in vivo.
Series [17] can be described thus: Oral bioavailability in cynomolgus monkey administered as crystalline form. Type of series: ADME, organism-based, Macaca fascicularis. The conditions noted are these: in vivo.
A short description of series [18]: Half life in Beagle dog administered as crystalline form. The conditions noted are these: in vivo. The class given is ADME, organism-based, Canis lupus familiaris.
Series [19] is described as follows: Oral bioavailability in Sprague-Dawley rat at 2 mg/kg administered as solution. Type of series: ADME, organism-based. The conditions noted are these: in vivo.
Series [20] in a line: Oral bioavailability in Sprague-Dawley rat administered as crystalline form. Particulars: in vivo. The class given is ADME, organism-based.
The test system of series [21] is Rattus norvegicus. In words: Antiarthritic activity in Lewis rat assessed as inhibition of streptococcal cell wall-induced paw swelling at 30 mg/kg/day, po administered on day 10 of streptococcal cell wall challenge continued until day 21 by plethysmometer. Type of series: functional.
For series [22], the system named is Rattus norvegicus. Briefly: Antiarthritic activity in Lewis rat assessed as inhibition of streptococcal cell wall-induced paw swelling at 10 mg/kg/day, po administered on day 10 of streptococcal cell wall challenge continued until day 21 by plethysmometer. Type of series: functional.

Consider `CNC(=O)c1ccc(C(=O)O)c(-n2c(C)cc(OCc3ccc(F)cc3F)c(Br)c2=O)c1`, for which the IC50 in series [1] was more than 10000 nM; with PBMC (Homo sapiens, PBMC) it was more than 25000 nM.
For the compound `CNC(=O)c1ccc(C)c(-n2c(CO)cc(OCc3ccc(F)cc3F)c(Br)c2=O)c1`, the IC50 is 4 nM in [1] and 16 nM with PBMC (Homo sapiens, PBMC). The inhibition in vivo at 5 mg/kg in the series with Rattus norvegicus [2] was 1%.
Consider `Cc1ccc(C(=O)N(C)C)cc1-n1c(C)cc(OCc2ccc(F)cc2F)c(Br)c1=O`, for which the concentration for half-maximal inhibition (IC50) in series [1] came to 9.5 nM; with PBMC (Homo sapiens, PBMC), 28.5 nM. Also, the remaining at 0.75 h, 2 µM was found to be 71% in [3] and 75% in series [5]. Moreover, the inhibition in vivo at 5 mg/kg with Rattus norvegicus [2] is 96%. The inhibition in vivo at 60 mg/kg/day in the series with Rattus norvegicus [4] amounted to 74%.
Regarding `CNC(=O)c1ccc(OC)c(-n2c(C)cc(OCc3ccc(F)cc3F)c(Br)c2=O)c1`, the IC50 in series [1] was found to be 21 nM; in the series with PBMC (Homo sapiens, PBMC), 107 nM. In addition, in the series on Rattus norvegicus [2], the inhibition in vivo at 5 mg/kg amounted to 20%.
With `CNC(=O)c1ccc(-n2c(C)cc(OCc3ccc(F)cc3F)c(Br)c2=O)c(C)c1`, the IC50 in [1] worked out at 34 nM; in the series on PBMC (Homo sapiens, PBMC) it was 156 nM. The remaining at 0.75 h, 2 µM in [3] came out at 86%; in [5], 93%. In the series on Rattus norvegicus [2], the inhibition in vivo at 5 mg/kg worked out at 54%.
The compound `CNC(=O)c1ccc(C)c(-n2c(C)cc(OCc3ccc(F)cc3F)c(Br)c2=O)c1` [PH-797804] registered a solubility in series [6] of less than 5 µg/mL. Further, in the series with Rattus norvegicus [7], the inhibition in vivo at 2 mg/kg/day worked out at 80%. Further, the Stability was 100% with Liver microsomes [8]; 98% and 92% in the series on Liver microsomes [12]. Also, the remaining at 0.75 h, 2 µM amounted to 95% in series [3] and 91% in [5]. Moreover, the “inhibition (INH)” value with Rattus norvegicus [2] (5 mg/kg) is 95% and 38%. For the same compound, the apparent permeability from apical to basolateral (Papp A→B) at 1 µM in series [9] was found to be 10 ×10⁻⁶ cm/s. Further, in the series with PBMC (pbmc), the concentration for half-maximal inhibition (IC50) was 15 nM and 3.4 nM. Moreover, the half-life in series [10] is 2.6 h; in series [16], 3.93 h; in [18], 11.4 h. For the same compound, the bioavailability in series [11] was 59.6%; in [13] it was 80.4%; in [15], 36.2%; in series [17] it was 23.2%; in series [19], more than 100%; in [20], 35.7%. In addition, the Papp A→B at 100 µM in series [14] turned out to be 25 ×10⁻⁶ cm/s.
With `CNC(=O)c1ccc(F)c(-n2c(C)cc(OCc3ccc(F)cc3F)c(Br)c2=O)c1`, the IC50 was found to be 8.5 nM in series [1] and 46 nM with PBMC (Homo sapiens, PBMC). In addition, the inhibition in vivo at 5 mg/kg with Rattus norvegicus [2] is 83%.
On to `CNC(=O)c1ccc(CO)c(-n2c(C)cc(OCc3ccc(F)cc3F)c(Br)c2=O)c1`, for which, in series [1], the IC50 came out at 325 nM.
As for `CNC(=O)c1ccc(Cl)c(-n2c(C)cc(OCc3ccc(F)cc3F)c(Br)c2=O)c1`, the 50% inhibitory concentration (IC50) amounted to 3 nM in [1] and 18 nM in the series on PBMC (Homo sapiens, PBMC). The inhibition in vivo at 5 mg/kg in the series on Rattus norvegicus [2] was 89%. For the same compound, the inhibition in vivo at 30 mg/kg/day in the series with Rattus norvegicus [21] amounted to 90%.
In the case of `Cc1ccc(C(N)=O)cc1-n1c(C)cc(OCc2ccc(F)cc2F)c(Br)c1=O`, the IC50 in [1] came to 2 nM; in the series with PBMC (Homo sapiens, PBMC), 2.5 nM. Besides, the results for the remaining at 0.75 h, 2 µM in [3] and in series [5] were 100% and 84%, respectively. The inhibition in vivo at 5 mg/kg with Rattus norvegicus [2] turned out to be 98%. Further, the inhibition in vivo at 10 mg/kg/day in the series on Rattus norvegicus [22] was 87%.
In the case of `CNC(=O)c1cccc(-n2c(C)cc(OCc3ccc(F)cc3F)c(Br)c2=O)c1C`, the IC50 in [1] came to 48.5 nM; in the series with PBMC (Homo sapiens, PBMC) it was 193 nM. Further, the remaining at 0.75 h, 2 µM in series [3] worked out at 91%; in series [5], 89%. For the same compound, the inhibition in vivo at 5 mg/kg with Rattus norvegicus [2] worked out at 61%.

The record behind these values is ChEMBL document CHEMBL1799989 (Bioorg Med Chem Lett, 2011).
